In patent US7649004B2, “Pyridine derivatives” (Pfizer, Inc., priority 2004, dated 2010):

Target: T1, Human Nav1.8 (Homo sapiens, UniProt Q9Y5Y9)
T1 construct: expressed in transfected cells; host or cells: HEK293
Assay: VIPR assay for Nav1.8 compounds (FRET membrane potential, deltamethrin-opened channels)
Format: cell-based
Details: HEK293 cells expressing human Nav1.8; deltamethrin as opener; read-out: affinity for the NaV1.8 channel (binding affinity; IC50 from VIPR assay)
From the text: The ability of the pyridine derivatives of the formula (I) to inhibit the NaV1.8 channel may be measured using the assay described below.
VIPR Assay for Nav1.8 Compounds
This screen is used to determine the effects of compounds on tetrodotoxin-resistant (TTX-R) sodium channels in Human Nav1.8 (HEK293) expressing cell line, utilising the technology of Aurora's fluorescent Voltage/Ion Probe Reader (VIPR). This experiment is based on FRET (Fluorescence Resonance Energy Transfer) and uses two fluorescent molecules. The first molecule, Oxonol (DiSBAC2(3)), is a highly fluorescent, negatively charged, hydrophobic ion that “senses” the trans-membrane electrical potential. […] The voltage dependent redistribution is transduced into a ratiometric fluorescent readout via a second fluorescent molecule (Coumarin (CC2-DMPE)) that binds specifically to one face of the plasma membrane and functions as a FRET partner to the mobile voltage-sensing ion. […]
2. […] Once the incubation is complete, the cells are ready to be assayed using the VIPR for sodium addback membrane potential.
The data was analyzed and reported as normalised ratios of intensities measured in the 460 nm and 580 nm channels. […]
Rf/Ri ratio values are plotted using Excel Labstats (curve fit) or analysed via ECADA to determine an IC50 value for each compound.

T1 sequence (Q9Y5Y9 whole entry): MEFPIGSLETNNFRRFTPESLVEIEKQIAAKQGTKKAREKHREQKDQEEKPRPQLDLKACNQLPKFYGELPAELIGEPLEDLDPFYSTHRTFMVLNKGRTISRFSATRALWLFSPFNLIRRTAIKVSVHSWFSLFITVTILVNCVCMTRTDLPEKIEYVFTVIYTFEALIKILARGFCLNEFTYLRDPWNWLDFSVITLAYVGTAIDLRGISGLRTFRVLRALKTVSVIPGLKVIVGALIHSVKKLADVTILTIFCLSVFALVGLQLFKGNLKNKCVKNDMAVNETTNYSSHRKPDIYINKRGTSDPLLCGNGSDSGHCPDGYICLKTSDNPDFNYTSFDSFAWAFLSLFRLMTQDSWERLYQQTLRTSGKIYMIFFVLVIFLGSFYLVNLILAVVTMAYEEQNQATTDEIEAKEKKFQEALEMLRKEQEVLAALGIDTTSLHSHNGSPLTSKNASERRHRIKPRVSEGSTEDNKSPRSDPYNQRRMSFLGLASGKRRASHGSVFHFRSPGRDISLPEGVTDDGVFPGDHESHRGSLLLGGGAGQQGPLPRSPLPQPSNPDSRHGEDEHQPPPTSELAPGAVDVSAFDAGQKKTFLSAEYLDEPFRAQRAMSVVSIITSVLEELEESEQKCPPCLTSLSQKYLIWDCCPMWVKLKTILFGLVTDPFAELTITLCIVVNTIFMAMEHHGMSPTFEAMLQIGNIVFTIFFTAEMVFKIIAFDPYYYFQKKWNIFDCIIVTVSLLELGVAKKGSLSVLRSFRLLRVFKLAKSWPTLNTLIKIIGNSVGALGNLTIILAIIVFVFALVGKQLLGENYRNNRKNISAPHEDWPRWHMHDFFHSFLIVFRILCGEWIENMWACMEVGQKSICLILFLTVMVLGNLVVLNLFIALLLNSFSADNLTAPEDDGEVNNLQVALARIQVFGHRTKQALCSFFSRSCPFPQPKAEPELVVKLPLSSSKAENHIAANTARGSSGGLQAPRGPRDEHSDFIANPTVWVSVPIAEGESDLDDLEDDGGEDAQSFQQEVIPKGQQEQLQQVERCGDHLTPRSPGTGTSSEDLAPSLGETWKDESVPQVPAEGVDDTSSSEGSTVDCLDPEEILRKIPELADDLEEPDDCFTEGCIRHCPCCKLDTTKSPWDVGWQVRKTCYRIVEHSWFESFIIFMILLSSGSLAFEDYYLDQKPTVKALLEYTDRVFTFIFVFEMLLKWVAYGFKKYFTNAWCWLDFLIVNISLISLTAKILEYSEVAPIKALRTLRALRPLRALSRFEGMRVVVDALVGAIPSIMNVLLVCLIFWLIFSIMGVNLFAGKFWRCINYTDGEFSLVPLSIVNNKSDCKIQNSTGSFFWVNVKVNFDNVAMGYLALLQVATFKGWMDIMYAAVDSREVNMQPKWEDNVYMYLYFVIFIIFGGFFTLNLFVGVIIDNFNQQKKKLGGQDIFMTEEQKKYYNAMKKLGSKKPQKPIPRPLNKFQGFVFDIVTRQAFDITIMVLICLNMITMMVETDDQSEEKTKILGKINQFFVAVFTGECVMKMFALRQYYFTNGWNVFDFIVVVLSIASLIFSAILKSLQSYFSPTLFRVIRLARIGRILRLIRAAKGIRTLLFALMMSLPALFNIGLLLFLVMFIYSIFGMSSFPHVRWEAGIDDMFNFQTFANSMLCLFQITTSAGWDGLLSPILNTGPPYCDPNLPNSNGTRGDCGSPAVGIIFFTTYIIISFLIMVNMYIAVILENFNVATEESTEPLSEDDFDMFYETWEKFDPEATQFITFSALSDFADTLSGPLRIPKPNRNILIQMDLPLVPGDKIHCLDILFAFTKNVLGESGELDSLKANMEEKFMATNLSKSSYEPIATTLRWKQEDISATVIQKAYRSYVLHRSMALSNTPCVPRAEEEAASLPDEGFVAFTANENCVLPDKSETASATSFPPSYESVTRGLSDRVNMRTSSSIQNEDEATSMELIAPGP

Which IC50 does the source give for `CNC(=O)c1ccc(-c2cc(Cl)cc(Cl)c2Cl)c(N)n1` [Example 1, 6-Amino-5-(2,3,5-trichloro-phenyl)-pyridine-2-carboxylic acid methylamide] here?
The IC50 was 2040 nM.
